Values quoted from earlier work in patent US7309799B2 (Collegium Pharmaceutical, Inc., priority 2004, dated 2007).

Assays:
[1] = system: SNL-induced hypersensitivity; settings: rats; for reversal of mechanical hypersensitivity: SNL
[2] = target: reuptake of serotonin (Homo sapiens, UniProt P31645); settings: compared with noradrenaline reuptake
[3] = system: gastric mucosa; settings: preclinical studies
[4] = system: neurotransmitter receptor

reuptake of serotonin, sequence (P31645 whole entry): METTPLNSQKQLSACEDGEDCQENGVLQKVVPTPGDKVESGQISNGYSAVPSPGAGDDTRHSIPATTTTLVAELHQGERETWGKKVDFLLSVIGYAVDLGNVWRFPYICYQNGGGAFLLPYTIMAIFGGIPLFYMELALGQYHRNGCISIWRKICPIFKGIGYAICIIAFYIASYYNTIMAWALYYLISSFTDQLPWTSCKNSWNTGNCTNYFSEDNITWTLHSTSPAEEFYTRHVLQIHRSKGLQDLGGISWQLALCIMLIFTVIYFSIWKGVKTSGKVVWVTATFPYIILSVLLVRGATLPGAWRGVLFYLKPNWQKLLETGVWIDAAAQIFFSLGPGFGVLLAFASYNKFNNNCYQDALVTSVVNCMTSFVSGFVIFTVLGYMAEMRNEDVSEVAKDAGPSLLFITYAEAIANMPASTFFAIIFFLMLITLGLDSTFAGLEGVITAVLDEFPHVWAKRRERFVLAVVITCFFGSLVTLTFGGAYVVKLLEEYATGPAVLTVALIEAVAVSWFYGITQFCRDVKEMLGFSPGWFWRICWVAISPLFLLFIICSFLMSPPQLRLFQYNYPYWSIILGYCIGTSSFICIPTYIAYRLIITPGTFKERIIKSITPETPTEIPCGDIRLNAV

Question: For `CCN(CC)C(=O)[C@@]1(c2ccccc2)C[C@H]1CN.Cl` (racemic) [milnacipran, racemic cis-2-(aminomethyl)-N,N-diethyl-1-phenyl-cyclopropanecarboxamide], which “effectiveness in reversing SNL induced thermal hypersensitivity compared with duloxetine” value [1] is on record?
Answer: Its value is “more effective”.

Question: And the “reversal of SNL-induced thermal hypersensitivity” value [1]?
Answer: Its value is “both reversed”.

Question: What about the “reversal of mechanical hypersensitivity” value [1] of the same compound?
Answer: Its value is “Neither milnacipran nor duloxetine reversed”.

Question: What about the “potency of inhibition of the reuptake of serotonin” value [2] of the same compound?
Answer: The value was “essentially equal potency”.

Question: And the “effect on gastric mucosa” value [3]?
Answer: Its value is “direct irritant effect”.

Question: And the “general and cardiovascular tolerability versus TCAs” value (database of over 3300 patients)?
Answer: The value was “superior to those of the tricyclic antidepressants (TCAs)”.

Question: What about the “incidence of dysuria versus SSRIs” value (human, in vivo) of the same compound?
Answer: Its value is “higher incidence of dysuria”.

Question: And the “tolerability versus SSRIs” value (human, in vivo)?
Answer: Its value is “comparable to that of the SSRIs”.

Question: And the “nausea and vomiting (dose-limiting gastrointestinal disturbances)” value (oral administration)?
Answer: Its value is “increasing frequency after doses of 100 mg or above”.

Question: And the “affinity for any neurotransmitter receptor studied” value [4]?
Answer: The value was “no detectable affinity”.

Question: Which “reversal of SNL-induced thermal hypersensitivity” value [1] does the source give for `CNCC[C@H](Oc1cccc2ccccc12)c1cccs1` [duloxetine] here?
Answer: The value was “both reversed”.

Question: What about the “reversal of mechanical hypersensitivity” value [1] of the same compound?
Answer: Its value is “Neither milnacipran nor duloxetine reversed”.
